The target in this experiment is T1, human capsaicin receptor (Homo sapiens, UniProt Q8NER1).
T1 construct: A cDNA encoding full length human capsaicin receptor recited in U.S. Pat. No. 6,482,611 was subcloned in the plasmid pBK-CMV; expressed in transfected cells
T1 sequence (Q8NER1 whole entry): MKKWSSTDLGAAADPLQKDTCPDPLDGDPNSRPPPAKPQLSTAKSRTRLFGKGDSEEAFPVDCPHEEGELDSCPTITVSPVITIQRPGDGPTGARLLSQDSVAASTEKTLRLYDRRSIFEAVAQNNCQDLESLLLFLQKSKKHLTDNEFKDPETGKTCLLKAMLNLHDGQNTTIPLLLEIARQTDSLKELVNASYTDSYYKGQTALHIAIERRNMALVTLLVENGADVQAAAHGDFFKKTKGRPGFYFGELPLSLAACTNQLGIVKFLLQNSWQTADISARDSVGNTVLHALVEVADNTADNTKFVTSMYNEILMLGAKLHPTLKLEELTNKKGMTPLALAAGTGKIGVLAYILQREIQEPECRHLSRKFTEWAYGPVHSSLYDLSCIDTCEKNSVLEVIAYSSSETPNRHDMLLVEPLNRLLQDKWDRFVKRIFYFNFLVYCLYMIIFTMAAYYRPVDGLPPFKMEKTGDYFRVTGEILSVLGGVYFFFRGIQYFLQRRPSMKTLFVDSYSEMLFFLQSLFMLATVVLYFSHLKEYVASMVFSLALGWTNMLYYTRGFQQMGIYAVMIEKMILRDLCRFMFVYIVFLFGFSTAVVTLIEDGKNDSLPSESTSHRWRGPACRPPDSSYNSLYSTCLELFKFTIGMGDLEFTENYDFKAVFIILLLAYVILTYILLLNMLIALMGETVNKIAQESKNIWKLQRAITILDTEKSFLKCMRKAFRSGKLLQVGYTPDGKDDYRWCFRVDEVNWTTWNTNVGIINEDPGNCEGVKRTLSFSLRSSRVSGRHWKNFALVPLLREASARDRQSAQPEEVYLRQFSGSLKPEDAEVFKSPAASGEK
The experiment in a line: Calcium mobilization assay (Example 6). The class given is cell-based. The conditions noted are these: concentration required to provide a 50% decrease in the fluorescence response of cells exposed to one IC50 of capsaicin. A digest of the protocol:
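HEK293 clonal lines stably expressing full-length human capsaicin receptor, Fluo-3 AM loaded in KRH buffer pH 7.4. Compounds (final 1-5 μM) preincubated 0.5-6 h at room temperature in the dark, then capsaicin added at its predetermined IC50 concentration. FLIPR calcium signal at 30-60 s; IC50 = antagonist concentration giving 50% decrease.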
In general terms: Calcium flux is commonly read through the fluorescence of an indicator in the cells.
In general, IC50 refers to the midpoint of a concentration-inhibition curve. Regarding `CCCc1cc(Nc2ccc(C(C)(C)O)cn2)c2ccc(-c3ncccc3C(F)(F)F)nc2n1` [Compound 117, 2-[6-({2-propyl-7-[3-(trifluoromethyl)pyridin-2-yl]-1,8-naphthyridin-4-yl}amino)pyridin-3-yl]propan-2-ol], the half-maximal inhibitory concentration (IC50) is at most 1000 nM.

Turning to `CC(C)c1cc(Nc2ccc(C(C)(C)O)cn2)c2ccc(-c3ncccc3C(F)(F)F)nc2n1` [Compound 118, 2-[6-({2-isopropyl-7-[3-(trifluoromethyl)pyridin-2-yl]-1,8-naphthyridin-4-yl}amino)pyridin-3-yl]propan-2-ol], the half-maximal inhibitory concentration (IC50) is at most 1000 nM.

`COC(C)c1cc(Nc2ccc(C(F)(F)F)cn2)c2ccc(-c3ncccc3C(F)(F)F)nc2n1` (stereo not shown) [Compound 119, 2-(1-methoxyethyl)-7-[3-(trifluoromethyl)pyridin-2-yl]-N-[5-(trifluoromethyl)pyridin-2-yl]-1,8-naphthyridin-4-amine]: the IC50 is at most 1000 nM.

Take `COC(C)c1cc(Nc2ccc(C(C)=O)cn2)c2ccc(-c3ncccc3C(F)(F)F)nc2n1` (stereo not shown) [Compound 120, 1-[6-({2-(1-methoxyethyl)-7-[3-(trifluoromethyl)pyridin-2-yl]-1,8-naphthyridin-4-yl}amino)pyridin-3-yl]ethanone]: the half-maximal inhibitory concentration (IC50) was at most 1000 nM.

With `COC(C)c1cc(Nc2ccc(C(C)(C)O)cn2)c2ccc(-c3ncccc3C(F)(F)F)nc2n1` (stereo not shown) [Compound 121, 2-[6-({2-(1-methoxyethyl)-7-[3-(trifluoromethyl)pyridin-2-yl]-1,8-naphthyridin-4-yl}amino)pyridin-3-yl]propan-2-ol], the IC50 was at most 1000 nM.

In the case of `CCCc1cc(Nc2ccc(Cl)cn2)c2ccc(-c3ncccc3C(F)(F)F)nc2n1` [Compound 122, N-(5-chloropyridin-2-yl)-2-propyl-7-[3-(trifluoromethyl)pyridin-2-yl]-1,8-naphthyridin-4-amine], the 50% inhibitory concentration (IC50) is at most 1000 nM.

Take `CCCc1cc(Nc2ccc(S(C)(=O)=O)cn2)c2ccc(-c3ncccc3C(F)(F)F)nc2n1` [Compound 123, N-[5-(methylsulfonyl)pyridin-2-yl]-2-propyl-7-[3-(trifluoromethyl)pyridin-2-yl]-1,8-naphthyridin-4-amine]: the IC50 was at most 1000 nM.

Take `CN1CCCC(c2cc(Nc3ccc(C(F)(F)F)cn3)c3ccc(-c4ncccc4C(F)(F)F)nc3n2)C1` (stereo not shown) [Compound 124, 2-(1-methylpiperidin-3-yl)-7-[3-(trifluoromethyl)pyridin-2-yl]-N-[5-(trifluoromethyl)pyridin-2-yl]-1,8-naphthyridin-4-amine]: the IC50 is at most 1000 nM.

For `N#Cc1cc(Nc2ccc(C(F)(F)F)cn2)c2ccc(-c3ncccc3C(F)(F)F)nc2n1` [Compound 125, 7-[3-(trifluoromethyl)pyridin-2-yl]-4-{[5-(trifluoromethyl)pyridin-2-yl]amino}-1,8-naphthyridine-2-carbonitrile], the IC50 is at most 1000 nM.

As to `NC(=O)c1cc(Nc2ccc(C(F)(F)F)cn2)c2ccc(-c3ncccc3C(F)(F)F)nc2n1` [Compound 126, 7-[3-(trifluoromethyl)pyridin-2-yl]-4-{[5-(trifluoromethyl)pyridin-2-yl]amino}-1,8-naphthyridine-2-carboxamide], the IC50 is at most 1000 nM.

On to `CCCc1cc(Nc2ccc(CC)cn2)c2ccc(-c3ncccc3C(F)(F)F)nc2n1` [Compound 128, N-(5-ethylpyridin-2-yl)-2-propyl-7-[3-(trifluoromethyl)pyridin-2-yl]-1,8-naphthyridin-4-amine], for which the IC50 is at most 1000 nM.

Take `FC(F)(F)c1ccc(Nc2cc(N3CCOCC3)nc3nc(-c4ncccc4C(F)(F)F)ccc23)nc1` [Compound 129, 2-morpholin-4-yl-7-[3-(trifluoromethyl)pyridin-2-yl]-N-[5-(trifluoromethyl)pyridin-2-yl]-1,8-naphthyridin-4-amine]: the IC50 is at most 1000 nM.

As for `CC(C)CNc1cc(Nc2ccc(C(F)(F)F)cn2)c2ccc(-c3ncccc3C(F)(F)F)nc2n1` [Compound 130, N~2~-isobutyl-7-[3-(trifluoromethyl)pyridin-2-yl]-N~4~-[5-(trifluoromethyl)pyridin-2-yl]-1,8-naphthyridine-2,4-diamine], the IC50 is at most 1000 nM.

The record behind these values is patent publication US7488740B2, “Substituted quinolin-4-ylamine analogues” (Neurogen Corporation, priority 2003, dated 2009).
